System: hypertensive subjects
Assay: Seated automated office blood pressure (AOBP) in randomized, placebo-controlled, dose-ranging study
Format: in vivo, human
Conditions: Part 1
Experimental: A randomized, double-blinded, placebo-controlled, dose-ranging, multicenter study was conducted to evaluate the effect of orally administered Compound A HBr on blood pressure for the treatment of hypertension in male and female subjects ≥18 years of age.
The study consists of two parts. For enrollment into Part 1 of the study, a subject's value of plasma renin activity (PRA) must be ≤1 ng/mL/h based on morning measurement. If the value of PRA >1 ng/mL/h based on morning measurement, then subjects may be eligible to enter Part 2 of the study.
For Part 1, 163 enrolled subjects ≥18 years of age were randomized into 6 equal treatment groups (1:1:1:1:1:1) to 12.5 mg BID, 25 mg BID, 12.5 mg QD, 50 mg QD, 100 mg QD, or placebo. After a review of interim clinical data, the 2 lowest dose levels (12.5 mg QD and 12.5 mg BID) were stopped for future randomization due to a lack of consistent meaningful reduction of blood pressure, but the patients randomized to that point remained in the study through completion. Thus, after the review of interim clinical data, subjects were randomized into 4 equal treatment groups (1:1:1:1) to 25 mg BID, 50 mg QD, 100 mg QD, or placebo.
For Part 2, 36 enrolled subjects ≥18 years of age were randomized (5:1) to either 100 mg QD Compound A HBr or placebo such that the Compound A HBr treatment group consisted of approximately 30 subjects and the placebo treatment group will consist of approximately 6 subjects.
Subjects orally administered the assigned study drug (Compound A HBr or placebo) according to the assigned dosing regimen for 8 weeks beginning on Study Day 1. All subjects in Part 1 (regardless of dosing group) received BID dosing to preserve the integrity of the blind; active drug is administered as the morning dose for all QD dose groups. Subjects returned to the research facility or were seen by the clinical investigator or approved home health care professional at the end of Study Weeks 1, 2, 3, 4, 5, 6, 7, and 8 (±2 days) for protocol-defined efficacy and safety assessments and procedures, assessment of adverse events (AEs), and confirmation of compliance with study drug usage. Subjects also completed a telephone visit and blood pressure (BP) check at home approximately 3 days post last dose of study drug. Subjects attended up to 14 full clinic visits, including a pre-Screening visit, a Screening/start of Placebo Run-in visit, a second visit during Placebo Run-in, a clinic visit to initiate the ABPM procedure, a Randomization visit, 8 weekly visits during double-blind treatment, and an end-of-study visit scheduled 4 weeks after the last study treatment for final efficacy and safety assessments.
An automated oscillometric sphygmomanometer device was used to measure the subjects' systolic and diastolic blood pressure in office after approximately 5 minutes of rest in the seated position.
The primary endpoint is the change in office-measured (mean of last 2 of 5 unattended measurements using an automated oscillometric sphygmomanometer device after approximately 5 minutes of rest in the seated position) systolic blood pressure (SBP) from baseline to the end of Study Week 8.
Secondary endpoints of this study were: • (a) Change in 24-hour ambulatory blood pressure monitoring (ABPM) parameters (systolic and diastolic) from baseline to the end of Study Week 7. • (b) Change in office-measured SBP from baseline to the end of Study Weeks 1, 2, 3, 4, 5, 6, and 7. • (c) Change in office-measured diastolic blood pressure (DBP) from baseline to the end of Study Weeks 1, 2, 3, 4, 5, 6, 7, and 8. • (d) Proportion of subjects who achieve office-measured BP of ≤130/80 mm Hg by the end of Study Week 8.

[1] = 12.5 mg QD, Systolic Blood Pressure Tertile at Baseline Low
[2] = 12.5 mg QD, Systolic Blood Pressure Tertile at Baseline Middle
[3] = 12.5 mg QD, Thiazide Diuretic Use at Baseline No
[4] = 12.5 mg QD, Thiazide Diuretic Use at Baseline Yes

What does the source list for CC(=O)N[C@H]1CC[C@H](NC(=O)CN2CCN(c3nncc(-c4ccc(C)cc4)n3)CC2)CC1 [Compound A HBr]?
Mean (SD) Change from Baseline at Week 8 in Automated Office-Measured Systolic Blood Pressure (12.5 mg QD, Systolic Blood Pressure Tertile at Baseline High): −10.83 (23.91) mmHg; Mean (SD) Automated Office-Measured Systolic Blood Pressure at Wk 8 [1]: 131.17 (12.77) mmHg; Mean (SD) Change from Baseline at Week 8 in Automated Office-Measured Systolic Blood Pressure [1]: −3.75 (13.24) mmHg; Mean (SD) Automated Office-Measured Systolic Blood Pressure at Wk 8 [2]: 143.33 (22.23) mmHg; Mean (SD) Change from Baseline at Week 8 in Automated Office-Measured Systolic Blood Pressure [2]: −1.17 (21.80) mmHg; Automated Office-Measured Diastolic Blood Pressure, Week 8, Mean (SD) [3]: 88.11 (21.40) mmHg; Mean (SD) Automated Office-Measured Systolic Blood Pressure at Wk 8 [3]: 149.11 (26.02) mmHg; Mean (SD) Change from Baseline at Week 8 in Automated Office-Measured Diastolic Blood Pressure [3]: 1.56 (17.70) mmHg; Mean (SD) Change from Baseline at Week 8 in Automated Office-Measured Systolic Blood Pressure [3]: −5.83 (25.10) mmHg; Automated Office-Measured Diastolic Blood Pressure, Week 8, Mean (SD) [4]: 74.78 (8.58) mmHg; Mean (SD) Automated Office-Measured Systolic Blood Pressure at Wk 8 [4]: 132.44 (14.02) mmHg; Mean (SD) Change from Baseline at Week 8 in Automated Office-Measured Diastolic Blood Pressure [4]: −5.11 (6.26) mmHg; Mean (SD) Change from Baseline at Week 8 in Automated Office-Measured Systolic Blood Pressure [4]: −7.89 (14.31) mmHg; Mean (SD) Automated Office-Measured Systolic Blood Pressure at Wk 8 (25 mg BID, ACEi/ARB No): 123.67 (28.36) mmHg; Mean (SD) Change from Baseline at Week 8 in Automated Office-Measured Systolic Blood Pressure (25 mg BID, ACEi/ARB No): −19.17 (12.25) mmHg; Mean (SD) Automated Office-Measured Systolic Blood Pressure at Wk 8 (25 mg BID, ACEi/ARB Yes): 132.20 (15.32) mmHg; Mean (SD) Change from Baseline at Week 8 in Automated Office-Measured Systolic Blood Pressure (25 mg BID, ACEi/ARB Yes): −9.04 (14.04) mmHg; Mean (SD) Automated Office-Measured Diastolic Blood Pressure at Wk 8 (25 mg BID, ACEi/ARBs No): 68.67 (8.33) mmHg; Mean (SD) Change from Baseline at Week 8 in Automated Office-Measured Diastolic Blood Pressure (25 mg BID, ACEi/ARBs No): −10.33 (13.25) mmHg; Mean (SD) Automated Office-Measured Diastolic Blood Pressure at Wk 8 (25 mg BID, ACEi/ARBs Yes): 76.24 (13.40) mmHg; Mean (SD) Change from Baseline at Week 8 in Automated Office-Measured Diastolic Blood Pressure (25 mg BID, ACEi/ARBs Yes): −2.88 (11.56) mmHg; Mean (SD) Automated Office-Measured Diastolic Blood Pressure at Wk 8 (25 mg BID, AHTs 2): 79.31 (15.91) mmHg; Mean (SD) Automated Office-Measured Systolic Blood Pressure at Wk 8 (25 mg BID, AHTs 2): 136.92 (18.45) mmHg; Mean (SD) Change from Baseline at Week 8 in Automated Office-Measured Diastolic Blood Pressure (25 mg BID, AHTs 2): −2.12 (15.46) mmHg; Mean (SD) Change from Baseline at Week 8 in Automated Office-Measured Systolic Blood Pressure (25 mg BID, AHTs 2): −6.15 (13.68) mmHg; Mean (SD) Automated Office-Measured Diastolic Blood Pressure at Wk 8 (25 mg BID, AHTs ≥3): 72.07 (9.26) mmHg; Mean (SD) Automated Office-Measured Systolic Blood Pressure at Wk 8 (25 mg BID, AHTs ≥3): 126.40 (13.57) mmHg; Mean (SD) Change from Baseline at Week 8 in Automated Office-Measured Diastolic Blood Pressure (25 mg BID, AHTs ≥3): −5.03 (7.45) mmHg; Mean (SD) Change from Baseline at Week 8 in Automated Office-Measured Systolic Blood Pressure (25 mg BID, AHTs ≥3): −13.57 (13.83) mmHg; Mean (SD) Automated Office-Measured Diastolic Blood Pressure at Wk 8 (25 mg BID, Age 65-79 yr): 74.71 (17.26) mmHg; Mean (SD) Automated Office-Measured Systolic Blood Pressure at Wk 8 (25 mg BID, Age 65-79 yr): 133.86 (19.37) mmHg; Mean (SD) Change from Baseline at Week 8 in Automated Office-Measured Diastolic Blood Pressure (25 mg BID, Age 65-79 yr): −0.46 (14.22) mmHg; Mean (SD) Change from Baseline at Week 8 in Automated Office-Measured Systolic Blood Pressure (25 mg BID, Age 65-79 yr): −7.82 (14.88) mmHg; Mean (SD) Automated Office-Measured Diastolic Blood Pressure at Wk 8 (25 mg BID, Age <65 yr): 76.54 (7.57) mmHg; Mean (SD) Automated Office-Measured Systolic Blood Pressure at Wk 8 (25 mg BID, Age <65 yr): 127.38 (13.07) mmHg; Mean (SD) Change from Baseline at Week 8 in Automated Office-Measured Diastolic Blood Pressure (25 mg BID, Age <65 yr): −6.69 (8.06) mmHg; Mean (SD) Change from Baseline at Week 8 in Automated Office-Measured Systolic Blood Pressure (25 mg BID, Age <65 yr): −12.31 (13.78) mmHg; Mean (SD) Automated Office-Measured Diastolic Blood Pressure at Wk 8 (25 mg BID, Age ≥80 yr): 71.00 (NE) mmHg; Mean (SD) Automated Office-Measured Systolic Blood Pressure at Wk 8 (25 mg BID, Age ≥80 yr): 146.00 (NE) mmHg; Mean (SD) Change from Baseline at Week 8 in Automated Office-Measured Diastolic Blood Pressure (25 mg BID, Age ≥80 yr): −9.50 (NE) mmHg; Mean (SD) Change from Baseline at Week 8 in Automated Office-Measured Systolic Blood Pressure (25 mg BID, Age ≥80 yr): −14.00 (NE) mmHg; Mean (SD) Automated Office-Measured Diastolic Blood Pressure at Wk 8 (25 mg BID, BMI 25−30 kg/m^2): 78.89 (20.58) mmHg; Mean (SD) Change from Baseline at Week 8 in Automated Office-Measured Diastolic Blood Pressure (25 mg BID, BMI 25−30 kg/m^2): 1.11 (16.18) mmHg; Mean (SD) Automated Office-Measured Diastolic Blood Pressure at Wk 8 (25 mg BID, BMI <25 kg/m^2): 69.25 (9.50) mmHg; Mean (SD) Change from Baseline at Week 8 in Automated Office-Measured Diastolic Blood Pressure (25 mg BID, BMI <25 kg/m^2): −8.25 (7.63) mmHg; Mean (SD) Automated Office-Measured Diastolic Blood Pressure at Wk 8 (25 mg BID, BMI >30 kg/m^2): 75.00 (6.97) mmHg

Source: patent publication US20260053811A1, “METHODS OF TREATING HYPERTENSION IN OBESE SUBJECTS” (Mineralys Therapeutics, Inc., priority 2022, published 2026)
